From PubChem BioAssay (NCI)
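Assay format: 96-well plates, 48-hour exposure. GI50 is the concentration that inhibits growth by half. At the TGI there is no net growth.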

How the values were obtained:
Test in all cases: NCI anticancer screen, dose series, 48 h
HCC-2998 colon = tested on: HCC-2998 colon
T-47D breast = tested on: T-47D breast
OVCAR-8 ovarian = tested on: OVCAR-8 ovarian
BT-549 breast = tested on: BT-549 breast
OVCAR-4 ovarian = tested on: OVCAR-4 ovarian
HCT-15 colon = tested on: HCT-15 colon
KM12 colon = tested on: KM12 colon
HS 578T breast = tested on: HS 578T breast
UACC-257 melanoma = tested on: UACC-257 melanoma
MOLT-4 leukemia = tested on: MOLT-4 leukemia
786-0 renal = tested on: 786-0 renal
A549 NSCLC = tested on: A549 NSCLC
UACC-62 melanoma = tested on: UACC-62 melanoma
MALME-3M melanoma = tested on: MALME-3M melanoma
CCRF-CEM leukemia = tested on: CCRF-CEM leukemia
NCI-H23 lung = tested on: NCI-H23 lung
ACHN renal = tested on: ACHN renal
SK-MEL-2 melanoma = tested on: SK-MEL-2 melanoma
NCI-H460 lung = tested on: NCI-H460 lung
SNB-75 CNS = tested on: SNB-75 CNS
HT29 colon = tested on: HT29 colon
U251 CNS = tested on: U251 CNS
CAKI-1 renal = tested on: CAKI-1 renal
SR leukemia = tested on: SR leukemia
SK-MEL-28 melanoma = tested on: SK-MEL-28 melanoma
RPMI-8226 leukemia = tested on: RPMI-8226 leukemia
A498 renal = tested on: A498 renal
UO-31 renal = tested on: UO-31 renal
SK-MEL-5 melanoma = tested on: SK-MEL-5 melanoma
SW-620 colon = tested on: SW-620 colon
HOP-62 NSCLC = tested on: HOP-62 NSCLC
HOP-92 NSCLC = tested on: HOP-92 NSCLC
SF-295 CNS = tested on: SF-295 CNS
HL-60(TB) leukemia = tested on: HL-60(TB) leukemia
OVCAR-5 ovarian = tested on: OVCAR-5 ovarian
SK-OV-3 ovarian = tested on: SK-OV-3 ovarian
MDA-MB-231 breast = tested on: MDA-MB-231 breast
NCI-H522 lung = tested on: NCI-H522 lung
SNB-19 CNS = tested on: SNB-19 CNS
IGROV1 ovarian = tested on: IGROV1 ovarian
DU-145 prostate = tested on: DU-145 prostate
MCF7 breast = tested on: MCF7 breast
SN12C renal = tested on: SN12C renal
LOX IMVI melanoma = tested on: LOX IMVI melanoma
K-562 leukemia = tested on: K-562 leukemia
NCI-H226 lung = tested on: NCI-H226 lung
M14 melanoma = tested on: M14 melanoma
SF-268 CNS = tested on: SF-268 CNS
HCT-116 colon = tested on: HCT-116 colon
PC-3 prostate = tested on: PC-3 prostate
SF-539 CNS = tested on: SF-539 CNS
NCI/ADR-RES ovarian = tested on: NCI/ADR-RES ovarian
OVCAR-3 ovarian = tested on: OVCAR-3 ovarian
RXF 393 renal = tested on: RXF 393 renal
COLO 205 colon = tested on: COLO 205 colon
MDA-MB-435 = tested on: MDA-MB-435
TK-10 renal = tested on: TK-10 renal
EKVX NSCLC = tested on: EKVX NSCLC

SMILES: O=C1NC(=NCCc2cccc(F)c2)S/C1=C\c1ccc2ncccc2c1
- GI50 (HCC-2998 colon): > 25 µM
- TGI (HCC-2998 colon): > 25 µM
- GI50 (T-47D breast): 6.89 µM
- TGI (T-47D breast): > 25 µM
- GI50 (OVCAR-8 ovarian): 12.8 µM
- TGI (OVCAR-8 ovarian): > 25 µM
- GI50 (BT-549 breast): 10.6 µM
- TGI (BT-549 breast): > 25 µM
- GI50 (OVCAR-4 ovarian): > 25 µM
- TGI (OVCAR-4 ovarian): > 25 µM
- GI50 (HCT-15 colon): 0.77 µM
- TGI (HCT-15 colon): > 25 µM
- GI50 (KM12 colon): 1.07 µM
- TGI (KM12 colon): > 25 µM
- GI50 (HS 578T breast): 10.6 µM
- TGI (HS 578T breast): > 25 µM
- GI50 (UACC-257 melanoma): 9.61 µM
- TGI (UACC-257 melanoma): > 25 µM
- GI50 (MOLT-4 leukemia): 8.72 µM
- TGI (MOLT-4 leukemia): > 25 µM
- GI50 (786-0 renal): 7.15 µM
- TGI (786-0 renal): > 25 µM
- GI50 (A549 NSCLC): 1.55 µM
- TGI (A549 NSCLC): > 25 µM
- GI50 (UACC-62 melanoma): 5.41 µM
- TGI (UACC-62 melanoma): > 25 µM
- GI50 (MALME-3M melanoma): 17.2 µM
- TGI (MALME-3M melanoma): > 25 µM
- GI50 (CCRF-CEM leukemia): 1.15 µM
- TGI (CCRF-CEM leukemia): > 25 µM
- GI50 (NCI-H23 lung): 19.2 µM
- TGI (NCI-H23 lung): > 25 µM
- GI50 (ACHN renal): 10.2 µM
- TGI (ACHN renal): > 25 µM
- GI50 (SK-MEL-2 melanoma): 15.8 µM
- TGI (SK-MEL-2 melanoma): > 25 µM
- GI50 (NCI-H460 lung): 1.39 µM
- TGI (NCI-H460 lung): > 25 µM
- GI50 (SNB-75 CNS): 3.79 µM
- TGI (SNB-75 CNS): > 21.9 µM
- GI50 (HT29 colon): 1.05 µM
- TGI (HT29 colon): > 25 µM
- GI50 (U251 CNS): 1.46 µM
- TGI (U251 CNS): > 25 µM
- GI50 (CAKI-1 renal): 2.43 µM
- TGI (CAKI-1 renal): > 25 µM
- GI50 (SR leukemia): 0.121 µM
- TGI (SR leukemia): > 25 µM
- GI50 (SK-MEL-28 melanoma): > 21.4 µM
- TGI (SK-MEL-28 melanoma): > 25 µM
- GI50 (RPMI-8226 leukemia): 1.73 µM
- TGI (RPMI-8226 leukemia): > 25 µM
- GI50 (A498 renal): 3.89 µM
- TGI (A498 renal): > 25 µM
- GI50 (UO-31 renal): 16.7 µM
- TGI (UO-31 renal): > 25 µM
- GI50 (SK-MEL-5 melanoma): 3.41 µM
- TGI (SK-MEL-5 melanoma): > 25 µM
- GI50 (SW-620 colon): 0.819 µM
- TGI (SW-620 colon): > 25 µM
- GI50 (HOP-62 NSCLC): 2.15 µM
- TGI (HOP-62 NSCLC): > 25 µM
- GI50 (HOP-92 NSCLC): > 25 µM
- TGI (HOP-92 NSCLC): > 25 µM
- GI50 (SF-295 CNS): 2.56 µM
- TGI (SF-295 CNS): > 25 µM
- GI50 (HL-60(TB) leukemia): 2.08 µM
- TGI (HL-60(TB) leukemia): > 12.9 µM
- GI50 (OVCAR-5 ovarian): > 25 µM
- TGI (OVCAR-5 ovarian): > 25 µM
- GI50 (SK-OV-3 ovarian): 4.38 µM
- TGI (SK-OV-3 ovarian): > 25 µM
- GI50 (MDA-MB-231 breast): > 25 µM
- TGI (MDA-MB-231 breast): > 25 µM
- GI50 (NCI-H522 lung): 3.59 µM
- TGI (NCI-H522 lung): 24.9 µM
- GI50 (SNB-19 CNS): 14.1 µM
- TGI (SNB-19 CNS): > 25 µM
- GI50 (IGROV1 ovarian): 5.15 µM
- TGI (IGROV1 ovarian): > 25 µM
- GI50 (DU-145 prostate): 10.1 µM
- TGI (DU-145 prostate): > 25 µM
- GI50 (MCF7 breast): 0.766 µM
- TGI (MCF7 breast): > 25 µM
- GI50 (SN12C renal): > 16 µM
- TGI (SN12C renal): > 25 µM
- GI50 (LOX IMVI melanoma): 1.75 µM
- TGI (LOX IMVI melanoma): > 25 µM
- GI50 (K-562 leukemia): 1.01 µM
- TGI (K-562 leukemia): > 25 µM
- GI50 (NCI-H226 lung): > 12.9 µM
- TGI (NCI-H226 lung): > 25 µM
- GI50 (M14 melanoma): 3.6 µM
- TGI (M14 melanoma): > 25 µM
- GI50 (SF-268 CNS): 10.7 µM
- TGI (SF-268 CNS): > 25 µM
- GI50 (HCT-116 colon): 1.3 µM
- TGI (HCT-116 colon): > 25 µM
- GI50 (PC-3 prostate): > 25 µM
- TGI (PC-3 prostate): > 25 µM
- GI50 (SF-539 CNS): 1.59 µM
- TGI (SF-539 CNS): > 25 µM
- GI50 (NCI/ADR-RES ovarian): 10.8 µM
- TGI (NCI/ADR-RES ovarian): > 25 µM
- GI50 (OVCAR-3 ovarian): 1.76 µM
- TGI (OVCAR-3 ovarian): > 25 µM
- GI50 (RXF 393 renal): 4.4 µM
- TGI (RXF 393 renal): > 25 µM
- GI50 (COLO 205 colon): 1.43 µM
- TGI (COLO 205 colon): > 25 µM
- GI50 (MDA-MB-435): 0.312 µM
- TGI (MDA-MB-435): 1.19 µM
- GI50 (TK-10 renal): > 12.4 µM
- TGI (TK-10 renal): > 25 µM

SMILES: C[C@@H]1CC[C@]2(C(=O)O)CC[C@]3(C)C(=CC[C@@H]4[C@@]5(C)CC[C@H](O)C(C)(C)[C@@H]5CC[C@]43C)[C@@H]2[C@]1(C)O
- TGI (HCC-2998 colon): 29.2 µM
- TGI (T-47D breast): 32.9 µM
- TGI (OVCAR-8 ovarian): 37.3 µM
- TGI (BT-549 breast): 28.2 µM
- TGI (OVCAR-4 ovarian): 30.5 µM
- TGI (HCT-15 colon): 24.2 µM
- TGI (KM12 colon): 26.7 µM
- TGI (HS 578T breast): 16.1 µM
- TGI (UACC-257 melanoma): 19.8 µM
- TGI (MOLT-4 leukemia): 18.3 µM
- TGI (786-0 renal): 18.7 µM
- TGI (A549 NSCLC): 33.3 µM
- TGI (UACC-62 melanoma): 10.1 µM
- TGI (MALME-3M melanoma): 25.7 µM
- TGI (CCRF-CEM leukemia): 23.2 µM
- TGI (NCI-H23 lung): 35.9 µM
- TGI (ACHN renal): 30.4 µM
- TGI (SK-MEL-2 melanoma): 31.8 µM
- TGI (NCI-H460 lung): 17.3 µM
- TGI (SNB-75 CNS): 28.1 µM
- TGI (U251 CNS): 27.3 µM
- TGI (CAKI-1 renal): 27.3 µM
- TGI (SR leukemia): 30 µM
- TGI (SK-MEL-28 melanoma): 26.9 µM
- TGI (RPMI-8226 leukemia): 33.9 µM
- TGI (A498 renal): 33.3 µM
- TGI (UO-31 renal): 23.5 µM
- TGI (SW-620 colon): 42.1 µM
- TGI (HOP-92 NSCLC): 20.7 µM
- TGI (SF-295 CNS): 10.6 µM
- TGI (HL-60(TB) leukemia): 19.8 µM
- TGI (OVCAR-5 ovarian): 31.5 µM
- TGI (SK-OV-3 ovarian): 31.8 µM
- TGI (MDA-MB-231 breast): 22.6 µM
- TGI (NCI-H522 lung): 27.9 µM
- TGI (SNB-19 CNS): 29.7 µM
- TGI (IGROV1 ovarian): 30.7 µM
- TGI (DU-145 prostate): 21.1 µM
- TGI (EKVX NSCLC): 33 µM
- TGI (MCF7 breast): 35.7 µM
- TGI (SN12C renal): 30.1 µM
- TGI (LOX IMVI melanoma): 29.5 µM
- TGI (K-562 leukemia): 19.6 µM
- TGI (M14 melanoma): 8.1 µM
- TGI (SF-268 CNS): 34.2 µM
- TGI (HCT-116 colon): 24.6 µM
- TGI (SF-539 CNS): 12 µM
- TGI (NCI/ADR-RES ovarian): 32.6 µM
- TGI (OVCAR-3 ovarian): 32.6 µM
- TGI (COLO 205 colon): 30 µM
- TGI (MDA-MB-435): 28.8 µM
- TGI (TK-10 renal): 27.5 µM
